ChEMBL document CHEMBL2150986, “Synthesis and biological evaluation of 1-benzylidene-3,4-dihydronaphthalen-2-one as a new class of microtubule-targeting agents” (J Med Chem, 2012)

Columns and labels:
CCRF-CEM = test: Cytotoxicity against human CEM cells after 72 hrs by MTT assay; type: functional, cell-based
MDA-MB-435 = test: cells; conditions: Homo sapiens, MDA-MB-435, 72 h
Description: Cytotoxicity against human MDA-MB-435 cells after 72 hrs by MTT assay

HCT-116 = test: cells; conditions: Homo sapiens, HCT-116, 72 h
Tubulin = Tubulin (Sus scrofa, UniProt P02554+P02550); test: Inhibition of porcine brain tubulin assembly measured every 1 min for 60 mins by turbidimetric analysis

Structure (SMILES) | IC50 (MDA-MB-435) [nM] | IC50 (HCT-116) [nM] | IC50 (Tubulin) [nM] | IC50 (CCRF-CEM) [nM]
COc1ccc2c(c1)/C(=C\c1ccc([N+](=O)[O-])cc1)C(=O)CC2 | > 10000 | 8950 | – | > 10000
COc1ccc2c(c1)/C(=C\c1ccc(C(F)(F)F)cc1)C(=O)CC2 | 6450 | 6160 | – | > 10000
COc1cccc2c1CCC(=O)/C2=C/c1ccc([N+](=O)[O-])cc1 | 7680 | 8680 | – | > 10000
COc1ccc2c(c1)/C(=C\c1ccc(O)c(OC)c1)C(=O)CC2 | 4350 | > 10000 | – | 6930
COc1cccc2c1CCC(=O)/C2=C/c1ccc(Cl)cc1Cl | 9320 | 7140 | – | > 10000
COc1ccc2c(c1)/C(=C\c1ccc(Cl)cc1Cl)C(=O)CC2 | > 10000 | > 10000 | – | > 10000
COc1cc(/C=C2/C(=O)CCc3c(OC)cccc32)ccc1O | 8630 | > 10000 | – | > 10000
COc1cccc2c1CCC(=O)/C2=C/c1ccc(C)cc1 | > 10000 | > 10000 | – | > 10000
COc1cccc2c1CCC(=O)/C2=C/c1ccc(C(F)(F)F)cc1 | 5890 | 5380 | – | > 10000
COc1ccc2c(c1)/C(=C\c1ccc(C(C)(C)C)cc1)C(=O)CC2 | > 10000 | > 10000 | – | > 10000
COc1cccc2c1CCC(=O)/C2=C/c1c(Cl)cccc1Cl | > 10000 | 6710 | – | 8640
COc1cccc2c1CCC(=O)/C2=C/c1ccccc1 | 6310 | > 10000 | – | 8690
COc1cccc2c1CCC(=O)/C2=C/c1ccc(N(C)C)cc1 | 7760 | 9780 | – | > 10000
COc1ccc2c(c1)CCC(=O)/C2=C/c1ccc(N(C)C)cc1 | 5680 | 8730 | – | 8030
COc1ccc2c(c1)/C(=C\c1ccc(Br)cc1)C(=O)CC2 | > 10000 | > 10000 | – | > 10000
COc1ccc(/C=C2/C(=O)CCc3c(OC)cccc32)cc1O | 5620 | > 10000 | – | 6310
COc1cccc2c1CCC(=O)/C2=C/c1ccc(Cl)cc1 | 6860 | 7520 | – | 8530
COc1cccc2c1CCC(=O)/C2=C/c1ccc(Br)cc1 | 7590 | 6800 | – | > 10000
COc1ccc2c(c1)/C(=C\c1ccc(N(C)C)cc1)C(=O)CC2 | > 10000 | > 10000 | – | > 10000
COc1ccc2c(c1)/C(=C\c1ccc(Cl)cc1)C(=O)CC2 | 5830 | 4690 | – | > 10000
COc1ccc2c(c1)/C(=C\c1ccc(Cl)c(Cl)c1)C(=O)CC2 | > 10000 | > 10000 | – | > 10000
COc1cccc2c1CCC(=O)/C2=C/c1ccc(C(C)(C)C)cc1 | > 10000 | > 10000 | – | > 10000
COc1ccc2c(c1)CCC(=O)/C2=C/c1ccc(O)c(OC)c1 | 4510 | 7500 | – | 5810
COc1cccc2c1CCC(=O)/C2=C/c1ccc(Cl)c(Cl)c1 | > 10000 | > 10000 | – | > 10000
COc1cccc2c1CCC(=O)/C2=C/c1ccc(OC)c(OC)c1OC | > 10000 | > 10000 | – | > 10000

Now those with a lower IC50 (MDA-MB-435), led by results:

IC50 (MDA-MB-435) [nM] | IC50 (HCT-116) [nM] | IC50 (Tubulin) [nM] | Structure (SMILES) | IC50 (CCRF-CEM) [nM]
3950 | 5670 | – | COc1cc(/C=C2/C(=O)CCc3c(OC)cccc32)cc(OC)c1 | > 10000
3350 | 5770 | – | COc1cccc2c1CCC(=O)/C2=C/c1ccccc1Cl | 8910
2620 | 3680 | – | COc1ccc2c(c1)/C(=C\c1ccc(C)cc1)C(=O)CC2 | 3770
2070 | 4910 | – | COc1ccc2c(c1)/C(=C\c1cccc(O)c1)C(=O)CC2 | 2570
1770 | 6700 | – | COc1ccc2c(c1)CCC(=O)/C2=C/c1ccc(C(C)(C)C)cc1 | 3100
1680 | 2350 | – | COc1ccc2c(c1)/C(=C\c1ccccc1Cl)C(=O)CC2 | 5260
1540 | 2120 | – | COc1ccc(/C=C2/C(=O)CCc3c(OC)cccc32)cc1OC | 1350
1540 | 2690 | – | COc1cccc2c1CCC(=O)/C2=C/c1ccc(O)cc1 | 4320
1450 | 3210 | – | COc1ccc2c(c1)/C(=C\c1ccccc1)C(=O)CC2 | 1530
1370 | 3580 | – | COc1ccc(/C=C2/C(=O)CCc3c(OC)cccc32)cc1 | 2640
1350 | 2680 | – | COc1ccc2c(c1)/C(=C\c1ccc(OC)c(OC)c1OC)C(=O)CC2 | 4210
1330 | 2560 | – | COc1ccc2c(c1)CCC(=O)/C2=C/c1ccc(C)cc1 | 2310
1230 | 2520 | – | COc1ccc2c(c1)CCC(=O)/C2=C/c1ccc(Cl)c(Cl)c1 | 1860
1120 | 2940 | – | COc1ccc2c(c1)CCC(=O)/C2=C/c1ccc(Br)cc1 | 1520
1050 | 1370 | – | COc1ccc2c(c1)/C(=C\c1ccc(OC)c(O)c1)C(=O)CC2 | 1420
950 | 1680 | 25780 | COc1ccc2c(c1)CCC(=O)/C2=C/c1ccc(OC)c(OC)c1OC | 850
940 | 470 | – | COc1ccc2c(c1)CCC(=O)/C2=C/c1ccccc1 | 920

IC50 (MDA-MB-435) [nM] | IC50 (HCT-116) [nM] | IC50 (Tubulin) [nM] | Structure (SMILES) | IC50 (CCRF-CEM) [nM]
890 | 1320 | – | COc1ccc2c(c1)/C(=C\c1ccc(OC)c(OC)c1)C(=O)CC2 | 270
890 | 1250 | – | COc1ccc2c(c1)CCC(=O)/C2=C/c1ccc(Cl)cc1 | 950
860 | 3240 | – | COc1ccc2c(c1)/C(=C\c1ccc(O)cc1)C(=O)CC2 | 1050
850 | 500 | – | COc1cc(/C=C2/C(=O)CCc3ccc(OC)cc32)cc(OC)c1 | 260
760 | 1760 | – | COc1ccc2c(c1)CCC(=O)/C2=C/c1cccc(O)c1 | 1460
750 | 2320 | – | COc1ccc2c(c1)CCC(=O)/C2=C/c1ccc(C(F)(F)F)cc1 | 1210
730 | 1910 | – | COc1ccc(/C=C2/C(=O)CCc3ccc(OC)cc32)cc1 | 890
630 | 320 | – | COc1ccc2c(c1)CCC(=O)/C2=C/c1ccc(OC)c(O)c1 | 120
610 | 1240 | 18680 | COc1cccc2c1CCC(=O)/C2=C/c1cc(OC)c(OC)c(OC)c1 | 2190
540 | 2230 | – | COc1ccc2c(c1)CCC(=O)/C2=C/c1ccc([N+](=O)[O-])cc1 | 680
460 | 1700 | – | COc1ccc2c(c1)CCC(=O)/C2=C/c1ccccc1Cl | 580
450 | 1130 | – | COc1ccc2c(c1)CCC(=O)/C2=C/c1ccc(O)cc1 | 960
390 | 150 | 6880 | COc1cc(/C=C2/C(=O)CCc3cc(OC)ccc32)cc(OC)c1 | 78
340 | 510 | 9630 | COc1ccc2c(c1)/C(=C\c1cc(OC)c(OC)c(OC)c1)C(=O)CC2 | 1
330 | 2150 | – | COc1ccc2c(c1)CCC(=O)/C2=C/c1ccc(Cl)cc1Cl | 1200
210 | 860 | 25820 | COc1ccc(/C=C2/C(=O)CCc3cc(OC)ccc32)cc1 | 110
200 | 130 | 6420 | COc1ccc2c(c1)CCC(=O)/C2=C/c1ccc(OC)c(OC)c1 | 72
